# From patent US4512986A, “Progrestationally active steroids” (priority 1983, dated 1985)
# Read-outs that look alike come from different tables or passages of the source.
# Assays:
# [1] = test system: curettage specimens of endometrial cancer patients; settings: i.m. twice weekly 3-7 weeks after polyestradiol phosphate 80 mg; all 12 patients; cited from earlier work
# [2] = target: T1, Cytosol Progesterone Receptor of the Estrogen-primed Immature Rabbit Uterus (Oryctolagus cuniculus, UniProt P06186); assay: Relative binding affinity for progesterone receptor (competition with 3H-progesterone); parameters: species or system rabbit (New Zealand White); settings: 16-18 hour incubation, progesterone = 100
# T1 construct: cytosol progesterone receptor of the estrogen-primed immature rabbit uterus; tissue Dutchland Laboratories, Inc., Denver, Pa (animals); host or cells: uterus cytosol of estradiol-treated immature female New Zealand White rabbits
# T1 sequence (P06186 1-930): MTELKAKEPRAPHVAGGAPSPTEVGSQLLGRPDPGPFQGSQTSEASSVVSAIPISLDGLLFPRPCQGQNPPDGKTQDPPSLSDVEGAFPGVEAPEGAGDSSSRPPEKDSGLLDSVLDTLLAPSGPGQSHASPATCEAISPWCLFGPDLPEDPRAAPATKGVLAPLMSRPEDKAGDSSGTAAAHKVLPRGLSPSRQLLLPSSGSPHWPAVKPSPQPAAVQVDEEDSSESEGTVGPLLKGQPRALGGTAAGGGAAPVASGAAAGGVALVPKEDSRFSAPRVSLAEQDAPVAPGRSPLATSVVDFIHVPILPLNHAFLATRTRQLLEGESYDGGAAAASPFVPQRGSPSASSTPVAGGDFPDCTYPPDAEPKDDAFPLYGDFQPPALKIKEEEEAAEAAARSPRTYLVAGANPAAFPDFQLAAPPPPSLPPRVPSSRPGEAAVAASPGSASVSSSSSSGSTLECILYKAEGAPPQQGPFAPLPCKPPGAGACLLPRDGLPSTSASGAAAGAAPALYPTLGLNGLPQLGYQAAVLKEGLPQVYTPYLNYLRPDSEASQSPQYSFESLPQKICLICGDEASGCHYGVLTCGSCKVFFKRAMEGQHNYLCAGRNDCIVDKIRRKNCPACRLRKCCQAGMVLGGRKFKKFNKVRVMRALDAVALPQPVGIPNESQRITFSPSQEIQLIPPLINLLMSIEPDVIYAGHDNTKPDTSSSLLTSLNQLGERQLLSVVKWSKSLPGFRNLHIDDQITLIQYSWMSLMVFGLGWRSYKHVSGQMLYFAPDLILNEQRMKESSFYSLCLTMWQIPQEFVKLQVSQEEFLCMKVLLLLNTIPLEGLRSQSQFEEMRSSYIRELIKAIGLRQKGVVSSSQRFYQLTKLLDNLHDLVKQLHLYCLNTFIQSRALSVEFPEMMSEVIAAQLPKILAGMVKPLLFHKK
# Procedure: RBA values recorded at 0° C. after short incubation times (e.g., 2 hr) mainly reflect differences in the association rate constants of the competing ligands, whereas those measured after long incubation times (e.g., 16 to 24 hr) and/or higher temperatures predominantly are influenced by differences in the dissociation rate constants of the competing ligands. RBA's determined after short incubation times primarily reflect the association of the competitor compared to the natural hormone. Conversely, RBA's measured after long incubation times reflect the dissociation rate of the competitor compared to the natural hormone.
# The assay components are combined, allowed to equilibrate, and unbound radioactivity removed by charcoal adsorption.
# Animal species. Immature female New Zealand White rabbits weighing 0.8 to 1.0 kg (Dutchland Laboratories, Inc., Denver, Pa).
# Pretreatment. Subcutaneous treatment with 15 μg 17β-estradiol/0.6 ml sesame oil each morning (0830 to 0930 hr) for three days. Animals sacrificed 24 hr after final injection.
# Tissue. Uterus; each uterus weighed about 1.0 g and two or three uteri were pooled for each assay.
# Buffer. (A) 0.01M TES, pH 7.4, 1 mM EDTA, 0.012M thioglycerol and 30% glycerol for cytosol preparation and ^3 H-steroid, unlabeled hormone and compound solutions. (B) 0.01M TES, pH 7.4, 1 mM EDTA and 0.012M thioglycerol for charcoal solution.
# Homogenization. Five or six 5-second bursts with 30 second cooling periods between bursts using Brinkman Polytron Pt. 10 at 3.5 rheostat setting.
# Temperature. 0°-4° C. for all steps.
# Centrifugation. 45,000 rpm for 1 hr, 50 Ti rotor, Beckman L8-80 ultracentrifuge.
# Incubation. 16-18 hr at 4°-6° C.
# Concentations. 1×10^-10 M to 1×10^-5 M (7 concentrations).
# Method. Charcoal adsorption method used to remove unbound radioactivity. Five-tenths ml of dextran-coated charcoal (0.5% Norit A and 0.05% dextran T-70) added to all tubes except total radioactivity tubes (0.5 ml buffer [B] added), tubes vortexed 3-5 sec, allowed to sit for 10 minutes and centrifuged 10 minutes at 2000 rpm in Beckman TJ-6 centrifuge at 0°-4° C.
# Data Interpretation. […] The relative binding affinity (RBA) of each compound was calculated by using the following equation. [formula] where
# [3] = in vivo; cited from earlier work
# [4] = test system: endometrium of estrogen-primed ovariectomized or climacteric women; settings: cited from earlier work
# [5] = test system: estrogen-primed immature rabbits; settings: cited from earlier work
# cycling rats [6] = settings: literature; cited from earlier work
# [7] = test system: androgen target organs of castrate immature male rats; assay: Anti-androgenic activity in the castrate immature rat assay; type: in vivo
# Procedure: The oral anti-androgenic activity of 6-methyl-6-dehydro-17α-ethynylprogesterone was evaluated in the castrate immature male rat assay [Lerner et al., Proc. Soc. […] The assay is briefly described in the footnotes to Table 11.
# *This assay employs castrate immature rats. For methods refer to Lerner,
# L. J., A. Bianchi and A. Borman, Proc. Soc.
# **Groups of rats (7/group) were given daily injections of 0.3 ml sesame
# oil (control) or compound (in 0.3 ml sesame oil) for 7 days. Some groups
# also concurrently received progestational compounds by the sc or oral
# route of administration in order to evaluate antiandrogenic activity. One
# day after the final doses, the animals were sacrificed and the androgen
# target organs indicated were weighed.
# ***Statistically significant (p < 0.05) lower organ weights versus the
# testosterone, sc, (400 μg/rat/day) group as determined by Analysis of
# Variance coupled with Duncan's Multiple Range Test.
# [8] = target: T1, Cytosol Progesterone Receptor of the Estrogen-primed Immature Rabbit Uterus; settings: relative to progesterone = 100; literature; cited from earlier work
# cycling rats [9] = assay: Blockade of ovulation in rats; type: in vivo, rat (Charles River CD); settings: for No. Rats Ovulated (of rats treated) / No. of Oviductal Eggs in Rats that Ovulated (X ± S.D.): single sc
# Description: The treated rats were sacrificed on the morning of expected estrus and eggs, if present, were flushed from the oviducts and counted. | *This assay employs cycling Charles River CD rats. For methods refer to | Beattie, C. W. and A. Corbin, Endocrinology 97, 885, 1975. […] | diestrus. Rats were sacrificed 43 to 44 hr later on the morning of | expected estrus. Eggs, if present, were flushed from oviducts and counted | under a stereomicroscope.
# [10] = general knowledge; cited from earlier work
# [11] = test system: uterine endometrium of estrone-primed immature rabbits; assay: Clauberg assay (progestational activity, McPhail); type: in vivo, rabbit (New Zealand White); settings: sc
# [12] = sc 25 μg/rat daily + testosterone sc 400
# [13] = sc 100 μg/rat daily + testosterone sc 400
# [14] = sc 400 μg/rat daily + testosterone sc 400
smiles,measurement,setting,value
CCCCCC(=O)O[C@]1(C(C)=O)CC[C@H]2[C@@H]3CCC4=CC(=O)CC[C@]4(C)[C@H]3CC[C@@]21C [17α-hydroxyprogesterone caproate],"inhibition of nucleic acid synthesis, in words",[1],Significant inhibition of nucleic acid synthesis
"CC(=O)O[C@]1(C(C)=O)CC[C@H]2[C@@H]3CCC4=CC(=O)CC[C@]4(C)[C@H]3CC[C@@]21C [17α-Acetoxyprogesterone (Prodox ®), 17α-Acetoxyprogesterone, reference compound]",RBA,[2]; Assay 5,122%
same,RBA,[2]; Assay 6,114%
same,"thromboembolic episodes, in words",[3],higher rate of thromboembolic episodes
C#C[C@]1(O)CC[C@H]2[C@@H]3CCC4=CC(=O)CC[C@@H]4[C@H]3CC[C@@]21CC (relative stereo) [(±)Norgestrel],"Threshold or effective dose, Kaufman Assay",[4]; oral,12 mg/cycle
same,"Threshold or effective dose, Clauberg Assay",[5]; oral,0.03-0.1 mg/animal
same,"Threshold or effective dose, Clauberg Assay",[5]; s.c. (i.m.),0.03 mg/animal
same,"effectiveness in suppressing ovulation relative to progesterone (Beattie and Corbin 1975), in words",cycling rats [6],five times as effective as progesterone
CCCCCC(=O)O[C@]1(C(C)=O)CC[C@H]2[C@@H]3CCC4=CC(=O)CC[C@@H]4[C@H]3CC[C@@]21C [19-nor-17α-hydroxyprogesterone caproate],"inhibition of nucleic acid synthesis, in words",[1],Significant inhibition of nucleic acid synthesis
CC(=O)[C@H]1CC[C@H]2[C@@H]3CCC4=CC(=O)CC[C@]4(C)[C@H]3CC[C@]12C [Progesterone],"Threshold or effective dose, Kaufman Assay",[4]; i.m.,200 mg/cycle
same,"Threshold or effective dose, Clauberg Assay",[5]; oral,10.0 mg/animal
same,"Threshold or effective dose, Clauberg Assay",[5]; s.c. (i.m.),0.5 mg/animal
same,Levator Ani weight (X ± S.D.),[7]; [12],54 ± 15 mg
same,Seminal Vesicles weight (X ± S.D.),[7]; [12],157 ± 19 mg
same,Ventral Prostate weight (X ± S.D.),[7]; [12],71 ± 28 mg
same,Levator Ani weight (X ± S.D.),[7]; [13],58 ± 15 mg
same,Ventral Prostate weight (X ± S.D.),[7]; [13],80 ± 27 mg
same,Levator Ani weight (X ± S.D.),[7]; [14],59 ± 14 mg
same,Seminal Vesicles weight (X ± S.D.),[7]; [14],162 ± 26 mg
same,Ventral Prostate weight (X ± S.D.),[7]; [14],60 ± 26 mg
same,"anti-androgenic activity, in words","[7]; with testosterone sc 400 μg/rat/day, doses up to 400 μg/rat/day (progestagen oral; progesterone sc)",inactive
same,RBA (Kontula et al. 1975),[8],100
same,"ovulation, in words","cycling rats [9]; 500 μg progesterone, 100, 250 or 500 μg 17α-ethynylprogesterone",ovulation was blocked in most rats
same,"ovulation, in words","cycling rats [9]; 100 or 250 μg progesterone, 50 μg 17α-ethynylprogesterone",ovulated in a normal fashion
same,No. Rats Ovulated (of rats treated),cycling rats [9]; 100 μg/rat,5/5
same,No. of Oviductal Eggs in Rats that Ovulated (X ± S.D.),cycling rats [9]; 100 μg/rat,7.8 ± 3.8
same,No. Rats Ovulated (of rats treated),cycling rats [9]; 250 μg/rat,4/5
same,No. of Oviductal Eggs in Rats that Ovulated (X ± S.D.),cycling rats [9]; 250 μg/rat,7.0 ± 3.8
same,No. Rats Ovulated (of rats treated),cycling rats [9]; 500 μg/rat,1/4
same,No. of Oviductal Eggs in Rats that Ovulated (X ± S.D.),cycling rats [9]; 500 μg/rat,9.0
same,"oral progestational activity, in words",[10],only weakly active when taken orally
same,Uterine Weight (X ± S.D.),[11]; 50 μg/rabbit daily,1.09 ± 0.09 g
same,Uterine Weight (X ± S.D.),[11]; 100 μg/rabbit daily,1.64 ± 0.23 g
